Data: US8568997B2, “Detection system and uses therefor” (Dimerix Bioscience Pty Ltd., priority 2006, dated 2013)

Legend:
[1] = system: TRHR with OxR1; assay: eBRET between TRHR/Rluc and barr2/Venus with OxR1 as IG3; type: cell-based
Method: (§1) Where antagonist was not preincubated, cells were treated with PBS instead for the same amount of time.
(§2) Cells were seeded in 6-well plates at a density of approximately 630,000 cells/well (HEK293FT) or approximately 150,000 cells/well (COS-7) and maintained at 37° C., 5% CO2 in Complete Media (DMEM containing 0.3 mg/ml glutamine, 100 IU/ml penicillin and 100 μg/ml streptomycin (Gibco)) supplemented with 10% fetal calf serum (FCS; Gibco). Transient transfections were carried out 24 h after seeding using GeneJuice (Novagen) or Metafectene (Biontex) according to manufacturer instructions. 24 h post-transfection, cells were washed with PBS, detached using 0.05% trypsin/0.53 mM EDTA, resuspended in HEPES-buffered phenol red free Complete Media containing 5% FCS and added to a poly-L-lysine-coated white microplate (Nunc). 48 h post-transfection, eBRET assays were carried out following pre-incubation of cells with EnduRen™ (Promega) at a final concentration of 30-40 μM, at 37° C., 5% CO2 for 2 h. For original BRET studies, the HEPES-buffered phenol red free Complete Media was replaced with PBS and coelenterazine h (Molecular Probes) added to a final concentration of 5 μM immediately prior to commencing the assay. […] Filtered light emissions were sequentially measured for 3-5 s in each of the ‘donor wavelength window’ (400-475 nm) and ‘acceptor wavelength window’ (>500 nm for EGFP or 520-540 nm for EYFP, Topaz (TYFP) or Venus). The BRET signal observed between interacting proteins is normalized by subtracting the background BRET ratio. […] In the following examples, the first calculation will be used, unless the signal is described as the ligand-induced BRET ratio'.
Cells not pretreated with antagonist were pretreated with PBS instead for the same amount of time.

[2] = system: TRHR with OxR2 (thyrotropin releasing hormone receptor/orexin receptor hetero-dimer/-oligomer); assay: eBRET/BRET between TRHR/Rluc (or Rluc8) and labelled beta-arrestin with OxR2 co-expressed as IG3; type: cell-based
Method: eBRET measurements at 37 C were carried out on HEK293 cells transiently co-expressing TRHR/Rluc and barr2/Venus with either pcDNA3, orexin receptor 2 (OxR2), CXC chemokine receptor 2 (CXCR2), hemagglutin epitope-tagged melanocortin receptor 3 or 4 (HA-MC3R or HA-MC4R), or dopamine D2 receptor long form (D2LR) or short form (D2SR) following the treatment of each with their respective ligands.
(§3) Phosphate-buffered saline (PBS) was used as a vehicle control.
as §1, §3
Sigmoidal dose response curves were plotted using Prism (GraphPad), either assuming a Hill slope of 1 or allowing for variable slope.
Phosphate-buffered saline (PBS) was added to the first two rows and the last two rows of the 96-well plate (48 wells in total) as a vehicle control. […] Data presented as fluorescence/luminescence.
as §2
In this case, data are shown as ‘fluorescence/luminescence’ being the ratio of light emission through the ‘acceptor wavelength window’ over the 400-475 nm emission for a particular cell sample. Unless otherwise stated, BRET signals were measured in 96-well microplates.

[3] = cited from earlier work
[4] = biological target: T1, CC chemokine receptor 5 (CCR5) (Homo sapiens, UniProt P51681); assay: eBRET between CCR5(5)TYFP and barr2/Rluc without IG3 (pcDNA3); type: cell-based; conditions: CCR5(5)TYFP + barr2/Rluc + pcDNA3
T1 construct: expressed in transfected cells; host or cells: HEK293
Method: (§4) Ligand treatments were either monocyte chemoattractant protein 1 (MCP1; CCR2 selective ligand), macrophage inflammatory protein 1b (MIP1b; CCR5 selective ligand), or both MCP1 and MIP1b combined. Phosphate-buffered saline (PBS) was used as a vehicle control.
Cells were seeded in 6-well plates at a density of approximately 630,000 cells/well (HEK293FT) or approximately 150,000 cells/well (COS-7) and maintained at 37° C., 5% CO2 in Complete Media (DMEM containing 0.3 mg/ml glutamine, 100 IU/ml penicillin and 100 μg/ml streptomycin (Gibco)) supplemented with 10% fetal calf serum (FCS; Gibco). Transient transfections were carried out 24 h after seeding using GeneJuice (Novagen) or Metafectene (Biontex) according to manufacturer instructions. 24 h post-transfection, cells were washed with PBS, detached using 0.05% trypsin/0.53 mM EDTA, resuspended in HEPES-buffered phenol red free Complete Media containing 5% FCS and added to a poly-L-lysine-coated white microplate (Nunc). 48 h post-transfection, eBRET assays were carried out following pre-incubation of cells with EnduRen™ (Promega) at a final concentration of 30-40 μM, at 37° C., 5% CO2 for 2 h. For original BRET studies, the HEPES-buffered phenol red free Complete Media was replaced with PBS and coelenterazine h (Molecular Probes) added to a final concentration of 5 μM immediately prior to commencing the assay. BRET measurements were taken at 37° C. using the Victor Light plate reader with Wallac 1420 software (Perkin-Elmer). Filtered light emissions were sequentially measured for 3-5 s in each of the ‘donor wavelength window’ (400-475 nm) and ‘acceptor wavelength window’ (>500 nm for EGFP or 520-540 nm for EYFP, Topaz (TYFP) or Venus). The BRET signal observed between interacting proteins is normalized by subtracting the background BRET ratio. […]

[5] = biological target: T2, CCR5 with CCR2 (Homo sapiens, UniProt P41597+P51681); assay: eBRET between CCR5(5)TYFP and barr2/Rluc with CCR2 as IG3; type: cell-based; conditions: CCR5(5)TYFP + barr2/Rluc + CCR2
T2 construct: expressed in transfected cells; host or cells: HEK293
Method: as §4
BRET measurements at 37 C were carried out on HEK293 cells transiently co-expressing CCR5(5)TYFP (contains a 5 amino acid linker between CCR5 and TYFP), barr2/Rluc and CCR2 treated with increasing doses of monocyte chemoattractant protein 1 (MCP1; CCR2 selective ligand). A sigmoidal dose response curve was plotted using Prism (GraphPad) allowing for variable slope.
Cells were seeded in 6-well plates at a density of approximately 630,000 cells/well (HEK293FT) or approximately 150,000 cells/well (COS-7) and maintained at 37° C., 5% CO2 in Complete Media (DMEM containing 0.3 mg/ml glutamine, 100 IU/ml penicillin and 100 μg/ml streptomycin (Gibco)) supplemented with 10% fetal calf serum (FCS; Gibco). […] BRET measurements were taken at 37° C. using the Victor Light plate reader with Wallac 1420 software (Perkin-Elmer). Filtered light emissions were sequentially measured for 3-5 s in each of the ‘donor wavelength window’ (400-475 nm) and ‘acceptor wavelength window’ (>500 nm for EGFP or 520-540 nm for EYFP, Topaz (TYFP) or Venus). […]

[6] = 10^−6M antagonist approx. 40 minutes before 10^−6M OxA
[7] = 10^−6M antagonist approx. 40 minutes before 10^−6M TRH and OxA

T1 sequence (P51681 whole entry, species assumed): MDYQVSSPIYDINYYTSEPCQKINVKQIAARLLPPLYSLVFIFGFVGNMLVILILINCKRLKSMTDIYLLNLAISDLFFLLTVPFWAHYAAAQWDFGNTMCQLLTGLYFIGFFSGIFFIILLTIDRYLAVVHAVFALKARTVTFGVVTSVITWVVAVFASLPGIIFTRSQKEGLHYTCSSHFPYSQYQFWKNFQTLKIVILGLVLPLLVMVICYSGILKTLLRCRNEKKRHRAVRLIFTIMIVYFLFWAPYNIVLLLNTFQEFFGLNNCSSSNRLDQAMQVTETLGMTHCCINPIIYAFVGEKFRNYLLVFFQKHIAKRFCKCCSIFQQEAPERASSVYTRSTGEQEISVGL
T2 sequence (P51681 whole entry, species assumed): as above
T2 sequence (P41597 whole entry, species assumed): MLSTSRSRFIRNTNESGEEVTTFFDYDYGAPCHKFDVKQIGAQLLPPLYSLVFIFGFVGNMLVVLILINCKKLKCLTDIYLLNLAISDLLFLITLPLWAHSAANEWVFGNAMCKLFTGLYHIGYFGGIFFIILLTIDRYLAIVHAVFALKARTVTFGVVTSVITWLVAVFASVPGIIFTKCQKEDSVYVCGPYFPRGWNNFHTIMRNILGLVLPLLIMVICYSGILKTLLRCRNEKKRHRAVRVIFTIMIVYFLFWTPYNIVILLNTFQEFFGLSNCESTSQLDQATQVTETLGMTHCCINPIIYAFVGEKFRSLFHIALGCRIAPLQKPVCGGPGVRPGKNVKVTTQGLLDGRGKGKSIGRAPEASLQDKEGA

Cc1nc2ccc(NC(=O)Nc3ccnc4cccnc34)cc2o1.Cl [SB-334867-A, 1-(2-methylbenzoxazol-6-yl)-3-[1,5]naphthyridin-4-yl urea hydrochloride]
effect of antagonist pretreatment on OxA-induced eBRET signal [1, 6]: reduced
effect of antagonist pretreatment on TRH + OxA-induced eBRET signal [1, 7]: reduced
effect of antagonist pretreatment on OxA-induced eBRET signal [2, 6]: not affected
effect of antagonist pretreatment on TRH + OxA-induced eBRET signal [2, 7]: did not differ

CN1C(=O)C[C@@H](C(=O)N[C@@H](Cc2c[nH]cn2)C(=O)N2CCC[C@H]2C(N)=O)NC1=O.O.O.O.O [TA-0910, (−)-N—[(S)-hexahydro-1-methyl-2,6-dioxo-4-pyrimidinylcarbonyl]-L-histidyl-L-prolinamide tetrahydrate]
slow wave sleep (SWS) and rapid eye movement (REM) sleep ([3]; dose- and time-dependent manner): significantly reduced
cataplexy ([3]; in most of the animals studied): completely suppressed

MCP1: Monocyte chemoattractant protein 1 (CCR2 selective ligand)
eBRET signal [4]: no eBRET signal
effect of MCP1 addition on MIP1b-induced eBRET signal [4]: made no difference
eBRET signal [5]: able to produce a signal

B1: MIP1b: Macrophage inflammatory protein 1b (CCR5 selective ligand) (protein, UniProt P13236 24-92, looked up)
C-C motif chemokine 4: APMGSDPPTACCFSYTARKLPRNFVVDYYETSSLCSQPAVVFQTKRSKQVCADPSESWVQEYVYDLELN
eBRET signal [4]: robust signal
eBRET signal [5]: produced a signal
